Assay results from patent publication US6500830B1, “Conversion of modification D to modification A of doxazosin mesylate” (Knoll Aktiengesellschaft, priority 1998, dated 2002).
Where a name gives a salt, the structure may show the parent alone.

Experiment: Dissolution of doxazosin mesylate in recrystallisation solvents
Type: physicochemical
Source text: Although doxazosin is mostly used as monomesylate, the preparation of this salt has not to date been described. […] The product isolated after cooling the suspension contains chloroform, which is a solvent which is objectionable from the toxicological viewpoint and which can be removed only with difficulty and not without adverse effects on the active ingredient. […] In addition, the yield is poor and the material proves to be X-ray amorphous. […] Hot filtration of the suspension affords a small yield of the described ethanol modification A as residue on the filter. Cooling the filtrate results in only a moderate yield of impure A modification.

solubility in chloroform (75 times the amount of chloroform at the boiling point): does not dissolve
solubility in ethanol (350 times the amount of ethanol at the boiling point of the solvent): does not dissolve
solubility in water (water, compared with chloroform): dissolves better in water
Compound: COc1cc2nc(N3CCN(C(=O)C4COc5ccccc5O4)CC3)nc(N)c2cc1OC (stereo not drawn) [doxazosin mesylate, 4-amino-2-[4-(1,4-benzodioxane-2-carbonyl)piperazin-1-yl]-6,7-dimethoxyquinazoline]
